# Laboratory results published in patent US20200354426A1 (MEDIMMUNE LIMITED, priority 2016, published 2020).
# Like-named read-outs stand apart in the source and are kept apart here. Numbered stars: 1 amine (or outer) side, 2 acyl side, 3 side chain; on linkers, the order of the positions; unused ones are H or OH. Side chains are listed from the residue outwards. Peptide text beside a SMILES is read from it. * marks the point of attachment. γGlu = O=C(O)[C@H](CCC(=O)[*:2])N[*:1]; Palmitoyl = CCCCCCCCCCCCCCCC(=O)*
# Experiments:
# Human GlucR [1] = target: T1, Human GlucR (Homo sapiens, UniProt P47871); assay: cAMP assay in 4.4% human serum albumin (assay 2); assay type: cell-based
# T1 construct: expressed in transfected cells
# T1 sequence (P47871 26-477): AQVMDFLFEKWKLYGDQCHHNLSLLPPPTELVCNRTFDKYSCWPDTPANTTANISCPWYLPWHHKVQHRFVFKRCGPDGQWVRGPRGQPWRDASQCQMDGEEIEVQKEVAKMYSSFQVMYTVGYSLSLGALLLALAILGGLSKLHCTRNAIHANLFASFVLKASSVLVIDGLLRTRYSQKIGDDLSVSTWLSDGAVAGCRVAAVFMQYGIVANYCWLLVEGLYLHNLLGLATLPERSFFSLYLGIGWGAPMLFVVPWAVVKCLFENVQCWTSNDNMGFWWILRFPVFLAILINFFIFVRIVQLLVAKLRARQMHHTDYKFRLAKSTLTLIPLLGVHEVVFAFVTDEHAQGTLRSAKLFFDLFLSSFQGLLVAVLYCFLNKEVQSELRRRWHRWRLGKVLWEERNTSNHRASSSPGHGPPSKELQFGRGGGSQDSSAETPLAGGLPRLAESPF
# Experimental: Cryopreserved cell stocks were prepared in 1× cell freezing medium-DMSO serum free (Sigma Aldrich) at 2×10^7/vial and stored at −80° C. […] Peptides were serially diluted in DMSO and then diluted 100 fold into DMEM containing serum albumin at stated final concentration. […] Cells were added to the assay plates and incubated for 30 min at room temperature. Following incubation the assay was stopped and cAMP levels measured using the HTRF® dynamic d2 cAMP assay kit available from CisBio Bioassays, as per the manufacture's guidelines. Plates were read on Perkin Elmer ENVISION® fluorescence plate readers. Human and rat serum albumin were purchased from Sigma Aldrich and mouse serum albumin from Equitech Bio Ltd.
# Data was transformed to % Delta F as described in manufacturer's guidelines and analysed by 4-parameter logistic fit to determine EC50 values. […] For instance. […] To compare the balance of activities at the GLP1R and GlucR between different peptides and across different conditions, these can be correlated using the calculation below, where the EC50's are related to those of the natural ligands.
# Human GLP1R = Human GLP1R (Homo sapiens, UniProt P43220)
# Human GLP1R, sequence (P43220 24-463): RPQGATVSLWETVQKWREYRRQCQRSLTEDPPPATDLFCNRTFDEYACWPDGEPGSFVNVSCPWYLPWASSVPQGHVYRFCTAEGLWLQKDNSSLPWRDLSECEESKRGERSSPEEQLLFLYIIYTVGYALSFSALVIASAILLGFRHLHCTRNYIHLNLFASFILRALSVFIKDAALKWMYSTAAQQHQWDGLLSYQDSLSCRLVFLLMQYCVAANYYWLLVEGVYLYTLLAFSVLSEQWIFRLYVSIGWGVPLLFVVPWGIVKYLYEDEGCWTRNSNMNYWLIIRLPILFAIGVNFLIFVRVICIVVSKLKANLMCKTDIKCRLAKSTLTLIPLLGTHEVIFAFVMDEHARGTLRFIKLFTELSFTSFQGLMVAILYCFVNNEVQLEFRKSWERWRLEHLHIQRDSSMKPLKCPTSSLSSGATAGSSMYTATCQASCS
# Human GlucR [2] = target: T1, Human GlucR; assay: cAMP activity assay in assay medium (assay 1); assay type: cell-based; details: assay medium
# Source text: (§1) Biological Activity of Peptides in Cell-Based cAMP Activity Assay (Assay 1):
# (§2) All sample dilutions were made in duplicate.
# Human GIPr = target: T2, Human GIPr (Homo sapiens, UniProt P48546); assay: cAMP activity assay in assay medium (assay 1); assay type: cell-based; details: assay medium
# T2 construct: expressed in transfected cells
# T2 sequence (P48546 22-466): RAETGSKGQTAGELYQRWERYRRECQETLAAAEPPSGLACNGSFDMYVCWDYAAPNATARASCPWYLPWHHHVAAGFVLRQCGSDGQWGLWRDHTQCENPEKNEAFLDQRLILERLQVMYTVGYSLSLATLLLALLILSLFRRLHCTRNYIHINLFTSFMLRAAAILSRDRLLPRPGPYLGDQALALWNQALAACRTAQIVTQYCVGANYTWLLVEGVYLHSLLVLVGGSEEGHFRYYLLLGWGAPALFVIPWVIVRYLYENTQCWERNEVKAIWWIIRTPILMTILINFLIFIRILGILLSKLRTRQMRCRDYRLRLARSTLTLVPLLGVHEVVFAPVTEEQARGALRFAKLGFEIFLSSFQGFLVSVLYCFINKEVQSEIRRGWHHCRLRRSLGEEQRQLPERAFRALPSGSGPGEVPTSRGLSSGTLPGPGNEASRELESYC
# Source text: as §1, §2
# [3] = system: overweight or obese subjects with type 2 diabetes mellitus; assay: Phase 1/2 multiple-ascending-dose study of G933, Cohorts 1-6 (efficacy, PK, safety); assay type: in vivo, human
# Source text: Approximately 75 overweight or obese subjects with relatively well controlled type 2 diabetes mellitus (T2DM) are enrolled to participate in the study. The enrolled subjects meet the following inclusion and exclusion criteria.
# Exclusion Criteria: • Any condition that would interfere with evaluations of the investigational product or interpretation of subject safety or study results. […] Patients who utilize benzodiazepines for chronic anxiety or sleep disorders may be permitted to enter the study; • History of severe allergy/hypersensitivity or ongoing clinically important allergy/hypersensitivity; • Whole blood or red blood cell donation, or any blood loss >500 mL during the 2 months prior to screening; • Received another new chemical entity (defined as a compound that has not been approved for marketing), or has participated in any other clinical study that included drug treatment within at least 30 days or 5 half-lives prior to the first administration of investigational product in this study (whichever is longer). The period of exclusion to begin 30 days or 5 half-lives of investigational product after the final dose, or after the last visit, whichever is longest.
# Part A consists of 3 cohorts.
# Part B consists of 1 cohort.
# The initial dose is 100 μg.
# Approximately 32 overweight or obese subjects with relatively well controlled type 2 diabetes mellitus (T2DM) are enrolled to participate in the study. The enrolled subjects meet the inclusion and exclusion criteria described in Example 5 with the following exceptions:
# Inclusion Criteria: • Cohort 5 and 6 subjects must be willing and able to self-administer daily subcutaneous (SC) injections following an initial self-injection of placebo (or normal saline) during the screening period.
# Exclusion Criteria: • Abnormal vital signs, after 10 minutes of supine rest, are defined as any of the following: (a) If systolic BP<90 mm Hg or ≥140 mm Hg; (b) Diastolic BP<50 mm Hg or ≥90 mm Hg; or (c) HR<45 or >85 bpm; • Unstable angina pectoris or stable angina pectoris classified higher than Canadian Cardiovascular Society class II or any previous medical history of myocardial infarction or stroke, or a history of a transient ischemic attack within the prior 12 months.
# A randomized, double-blind, multiple-ascending dose study is performed. This study consists of 2 cohorts: cohort 5 and cohort 6. […] Cohorts 5 and 6 have approximately 32 subjects total and are run in parallel.
# The study consists of an inpatient up-titration evaluation period beginning on Day 3 for both Cohorts 5 and 6 and an outpatient follow-up period. The first 4 days and the final day of dosing at 300 μg […].
# Subjects are admitted to the clinic as described in Example 5 for Cohorts 1-4. […] Subjects have a second inpatient period for the initiation of the 300 μg dose ending on the fourth day at that dose followed by at-home self administration.
# Additional time points include before commencing the 300 μg dose (Day 16 for Cohort 5 and Day 11 for Cohort 6) and at the end of dosing (Day 22 for Cohort 5 and Day 17 for Cohort 6). The MMT are performed as described in Example 5.
# [4] = Cohort 4, after 41 days, p<0.001
compound,measurement,setting,value
CCCCCCCCCCCCCCCC(=O)N[C@@H](CCC(=O)NCCCC[C@H](NC(=O)[C@H](CCCCN)NC(=O)[C@H](CO)NC(=O)[C@H](Cc1ccc(O)cc1)NC(=O)[C@H](CC(=O)O)NC(=O)[C@H](CO)NC(=O)[C@@H](NC(=O)[C@H](Cc1ccccc1)NC(=O)[C@@H](NC(=O)CNC(=O)[C@H](CCC(N)=O)NC(=O)[C@H](CO)NC(=O)[C@@H](N)Cc1c[nH]cn1)[C@@H](C)O)[C@@H](C)O)C(=O)N[C@@H](CC(C)C)C(=O)N[C@@H](CC(=O)O)C(=O)N[C@@H](CO)C(=O)N[C@@H](CCC(=O)O)C(=O)N[C@@H](CCCNC(=N)N)C(=O)N[C@@H](C)C(=O)N[C@@H](CCCNC(=N)N)C(=O)N[C@@H](CC(=O)O)C(=O)N[C@@H](Cc1ccccc1)C(=O)N[C@H](C(=O)N[C@@H](C)C(=O)N[C@@H](Cc1c[nH]c2ccccc12)C(=O)N[C@@H](CC(C)C)C(=O)N[C@H](C(=O)N[C@@H](C)C(=O)NCC(=O)NCC(N)=O)C(C)C)C(C)C)C(=O)O [Peptide G730] (H-HSQGTFTSDYSKK([γGlu-Palmitoyl])LDSERARDFVAWLVAGG-NH2; N-terminus assumed),EC50,Human GlucR [1],0.402 nM
same,Human GlucR/GLP1R Ratio,Human GlucR [1]; relative potency GlucR / relative potency GLP1R vs natural ligands,0.122
same,free peptide at 4.4% HSA,Human GLP1R,0.85%
same,EC50,"Human GlucR [2]; Table 2, C-terminal amide peptides, read-out: Human GlucR EC50",0.00623 nM
same,EC50,"Human GlucR [2]; Table 4, read-out: hGlucR EC50",0.015 nM
same,EC50,"Human GIPr; Table 2, C-terminal amide peptides, read-out: Human GIPr EC50",45 nM
same,EC50,"Human GIPr; Table 4, read-out: hGIPR EC50",56.6 nM
L-Histidyl-L-seryl-L-glutaminylglycyl-L-threonyl-L-phenylalanyl-L-threonyl-L-seryl-L-alpha-aspartyl-(N6-[N-(1-oxohexadecyl)-L-gamma-gutamyl])L-lysy-L-sery-L-alpha-glutamyl-L-tyrosyl-L-leucyl-L-alpha-aspartyl-L-seryl-L-alpha-glutamyl-L-arginyl-L-alanyl-L-arginyl-L-alpha-L-aspartyl-L-phenylalanyl-L-valyl-L-alanyl-L-tryptophyl-L-leucyl-L-alpha-glutamyl-L-alanylglycylglycine [Peptide G933],Fasting Glucose (change),"[3]; Cohort 1, 100 ug, n = 6",-28.00 mg/dL
same,Weight (change),"[3]; Cohort 1, 100 ug, n = 6",-1.1 kg
same,Fasting Glucose (change),"[3]; Cohort 2, 150 ug, n = 6",-17.90 mg/dL
same,Weight (change),"[3]; Cohort 2, 150 ug, n = 6",-0.5 kg
same,weight differential,"[3]; Cohort 3 (up to 200 μg, 15 days)",more than 2 kg
same,Fasting Glucose (change),"[3]; Cohort 3, 200 ug, n = 6",-43.20 mg/dL
same,Weight (change),"[3]; Cohort 3, 200 ug, n = 6",-2.4 kg
same,Fasting Glucose (change),"[3]; Cohort 4, 200 ug, n = 25",-32.62 mg/dL
same,Weight (change),"[3]; Cohort 4, 200 ug, n = 25",-2.11 kg
same,patients who lost at least 2% of their weight,"[3]; Cohort 4, after 41 days",84%
same,patients who lost at least 5 kg,"[3]; Cohort 4, after 41 days",44%
same,percent of weight lost,"[3]; Cohort 4, after 41 days",about 4.18%
same,weight lost,"[3]; Cohort 4, after 41 days",about 3.83 kg
same,HbA1c reduction,"[3]; Cohort 4, after 41 days of treatment",0.92%
same,percent weight loss difference between G933 and placebo,[3]; [4],2.47%
same,weight loss difference between G933 and placebo,[3]; [4],2.12 kg
same,mean reduction in glucose AUC from baseline (day 1) to day 41,"[3]; Cohort 4, up to 200 μg, 90% C.I. −47.1, −29.0",38.5%
same,mean relative reduction in liver fat percentage from baseline versus placebo,"[3]; Cohort 4, 95% CI 7.2, 33.9, p=0.004",20.5%
same,reduction in liver volume compared to placebo,"[3]; Cohort 4, (−0.24, −0.03), p=0.01",0.14 L
same,mean HbA1c on day 42,"[3]; Cohort 4, baseline mean […]",6.3%
same,glucose AUC reduction,"[3]; Cohort 5 (up to 300 μg, 22 days), 90% C.I. −49.9, −33.5",41.7%
same,Fasting Glucose (change),"[3]; Cohort 5, 300 ug, n = 12",-24.40 mg/dL
same,Weight (change),"[3]; Cohort 5, 300 ug, n = 12",-2.11 kg
same,weight loss difference versus placebo,"[3]; Cohort 5, after 22 days",2.11 kg
same,weight lost,"[3]; Cohort 5, after 22 days",about 3.09 kg
same,glucose AUC reduction,"[3]; Cohort 6 (up to 300 μg, 17 days), C.I. −43.3, −28.3",35.8%
same,Fasting Glucose (change),"[3]; Cohort 6, 300 ug, n = 12",-36.94 mg/dL
same,Weight (change),"[3]; Cohort 6, 300 ug, n = 12",-1.88 kg
same,weight loss difference versus placebo,"[3]; Cohort 6, after 17 days",1.88 kg
same,weight lost,"[3]; Cohort 6, after 17 days",about 2.23 kg
same,mixed-meal test glucose AUC reduction,[3]; Cohorts 1-3 (100-200 μg QD),> 40%
same,weight loss,"[3]; Cohorts 1-3, dose dependent trend",up to 2 kg
